The text below walks through data of patent publication US8058258B2, “Methods for cancer therapy and stem cell modulation” (Agency for Science, Technology and Research, priority 2006, dated 2011).

Where a SMILES comes first, the peptide text is derived from it. [ ]: non-standard residue; d: D form. The star is where a group is joined. Nle = CCCC[C@H](N)C(=O)O; Nva = CCC[C@H](N)C(=O)O; Cbz = O=C(OCc1ccccc1)*

Holding throughout (assay type): cell-based, human
The test system of data set [1] is PRC2 target genes TGFBI, KRT17, FBXO32, ANXA8, DLX2. Description: Real-time RT-PCR of representative PRC2 targets in MCF-7 cells. (In general: In qPCR the cycle at which signal appears reflects the starting amount.)
Procedure: I: MCF-7 cells were untreated or treated with 3-deazaneplanocin (DZNep), 5-azacytidine (5-AzaC) or a combination of 5-azacytidine and trichostatin A (AZA+TSA), and RNA was isolated for gene expression analysis.
(§1) Cells were maintained in DMEM supplemented with 10% fetal bovine serum with glutamine, penicillin, and streptomycin. For drug treatment, cells were seeded the day before the drug treatment. Cells were treated with 5 μM 3-Deazaneplanocin A or 2 μM 5-aza-2′-deoxycytidine (5-AzaC; Sigma) for 72 hours and trichostatin A (TSA; Sigma) at 100 nM for 24 hours. For co-treatment of cells with 5-AzaC and TSA, 5-Aza was added for 48 hours and followed by TSA for 24 hours.
Total RNA was isolated from cell lines using Trizol (Invitrogen) and was converted to cDNA using an RNA Amplification kit (Ambion). […] Quantitative real-time PCR was performed on a PRISM 7900 sequenced detector (Applied Biosystems) using TaqMan probes (Applied Biosystems). Samples were normalized to the levels of 18S ribosomal RNA.
The array results were further confirmed by real-time RT-PCR for representative PRC2 targets.
Data set [2] relates to MCF-7 cells. As to the kind of experiment: Microarray gene expression analysis (Illumina BeadChip) in MCF-7 cells.
Procedure: as §1
The Smartpool siRNA duplexes of selected PRC2 targets and the non-targeting control were purchased from Dharmacon (Lafayett, Colo.). […] Cells were transfected with 50 nM final concentration of siRNA duplexes using Lipofectamine 2000 (Invitrogen) following the manufacturer's instructions.
Total RNA was isolated from cell lines using Trizol (Invitrogen) and was converted to cDNA using an RNA Amplification kit (Ambion). The microarray hybridisation was performed using the Illumina Gene Expression BeadChip (Illumina) and data analysis was performed using GeneSpring software from Agilent Technologies.
The effects on gene expression were analysed using an Illumina Gene Expression BeadChip. […] To be inclusive for the subsequent analysis, all 1402 genes were considered to be potential PRC2 target genes.
To identify the PRC2 targets specifically repressed in breast cancer cells, the expression profiles of the 140 putative PRC2 target genes in MCF-7 cells and MCF10A cells were compared by gene clustering analysis (FIG. 4C).
In data set [3] the test system is EZH2 and SUZ12 protein levels in MCF-7 cells. As to the kind of experiment: Proteosome inhibitor rescue of 3-deazaneplanocin-induced PRC2 depletion (Western blot). To be noted: 3-deazaneplanocin 18 h then MG132 (5 μM), LLNL (50 μM) or MG115 (20 μM) for 8 h. As to the method:
FIG. 1C depicts the effect of 3-deazaneplanocin in the presence of proteosome inhibitors on EZH2 and SUZ12 protein levels. MCF-7 cells were treated with 3-deazaneplanocin for 18 h, followed by the addition of proteosome inhibitor MG132 (5 μM), LLNL (50 μM), MG115 (20 μM) […] for 8 h. Cells were harvested for Western blot analysis of EZH2 and SUZ12.
Cell pellets were first lysed in RadioImmuno Precipitation Assay (RIPA) buffer, consisting of an aqueous solution of 25 mM Tris-HCl pH 7.6, 150 mM NaCl, 1% Nonidet-P 40 (NP-40), 1% sodium deoxycholate and 0.1% sodium dodecylsulfate (SDS), before further sonicated using a tissue homogeniser to release all the proteins. Equal amounts of protein were separated on SDS-polyacrylamide gels and transferred to polyvinylidene difluoride (PVDF) membranes. The blots were probed with antibodies against: EED (07-368), SUZ12 (07-379), SUV39H1 (07-550), BMI1 (05-637), tri-methylated H3-K27 (07-449), tri-methylated H3-K9 (07-442) and Acetyl-Histone H3 (06-599), and were purchased from Upstate. EZH2 (AC22) and Histone H3 (3H1) were from Cell Signaling. Antibodies against DNA methyl-transferases DNMT1 and DNMT3B were purchased from Alexis Biochemicals.
It has previously been reported that the stability of PRC2 proteins is regulated through proteosome-mediated mechanism. It was therefore tested whether the depletion of PRC2 proteins by 3-deazaneplanocin results from the protein degradation. MCF-7 cells were treated with 3-deazaneplanocin in the presence or absence of three individual proteosome inhibitors MG132, LLNL, and MG115 to test if these treatments would rescue 3-deazaneplanocin-induced PRC2 depletion.
(A western blot detects proteins with antibodies after separation by electrophoresis.)

`Nc1ncn([C@H]2C[C@H](O)[C@@H](CO)O2)c(=O)n1` [5-AzaC, 5-aza-2′-deoxycytidine, reference compound]: in data set [1], the “induction of TGFBI, KRT17 and FBX032 (real-time RT-PCR)” value was “not”. The “reactivation of the 140 PRC2 targets in general, in comparison with 3-deazaneplanocin” value in data set [2] (array, 5-AzaC 2 μM, TSA 100 nM) is “did not result in the significant reactivation”. With `CC(C)C[C@@H](C=O)NC(=O)[C@H](CC(C)C)NC(=O)[C@H](CC(C)C)NC(=O)OCc1ccccc1` [MG132] (Cbz-Leu-Leu-Leu-aldehyde), in data set [3], the “downregulation of EZH2 and SUZ12 protein levels in response to 3-deazaneplanocin” value was “prevented the downregulation”. With `CCCC[C@@H](C=O)NC(=O)[C@H](CC(C)C)NC(=O)[C@H](CC(C)C)NC(C)=O` [LLNL] (Ac-Leu-Leu-[Nle]-aldehyde), the “downregulation of EZH2 and SUZ12 protein levels in response to 3-deazaneplanocin” value in data set [3] was “prevented the downregulation”. Same read-out and setting: next, `CCC[C@@H](C=O)NC(=O)[C@H](CC(C)C)NC(=O)[C@H](CC(C)C)NC(=O)OCc1ccccc1` [MG115] (Cbz-Leu-Leu-[Nva]-aldehyde): “prevented the downregulation”.

B1: SUZ12 siRNA: siRNA targeting SUZ12 mRNA; stem-loop RNA from oligonucleotides SEQ ID NO: 1 and 2 (nucleic acid)
chain 1: GATCCCCGTCGCAACGGACCAGTTAATTCAAGAGATTAACTGGTCCGTTGCGACTTTTTGGAAA
chain 2: TCGATTTCCAAAAAGTCGCAACGGACCAGTTGATCTCTTGAATTAACTGGTCCGTTGCGACGGG
modifications: expressed or natural sequence; the letters are possibly those of the target site
Consider B1, for which the “number of genes upregulated ≧2-fold after siRNA treatment” value in data set [2] (siRNA knockdown of PRC2 component) is 572 genes.
